Results published in patent publication US10538516B2, “Oxadiazole derivative and pharmaceutical containing same” (National Center for Geriatrics and Gerontology, priority 2015, dated 2020).

target: T1, GAβ-dependent amyloid fibril formation (Human Aβ1-40 + GM1-containing liposome) (Homo sapiens, UniProt P05067); test: Thioflavin T (ThT) assay of GAβ-dependent amyloid fibril formation (Aβ1-40 with GM1-containing liposome); format: biochemical; conditions: @5 μM; read-out: ThT Inhibitory activity (% inhibition)
T1 construct: Human Aβ1-40 (cat. #4307-v, prepared by Peptide Institute); purchased Peptide Institute 4307-v
Description: <3. Evaluation of the Compounds Based on the Inhibitory Activity Against Amyloid Fibril Formation in Thioflabin T (ThT) Assay>
Inhibitory activity against GAβ-dependent amyloid fibril formation of the above compounds 1 to 133 and 142 to 267 were evaluated in ThT assay.
(1) Preparation of Aβ Solution
Human Aβ1-40 (cat. #4307-v, prepared by Peptide Institute) was dissolved in a 0.02% ammonia solution (400 μM), and the mixture was treated in an ultracentrifuge (S110AT rotor, Hitachi) at 100,000 rpm for 3 hours. Approximately two-thirds of the upper layer of the supernatant was recovered and protein concentration was measured. The Aβ solution was aliquoted and stored at −80° C. until use, was melted immediately before use, and was diluted to 75 μM using phosphate buffer (PBS: cat. #10010, manufactured by Life Technologies).
(2) Preparation of GM1-Containing Liposome
Using a mixed solution of chloroform/methanol (1:1) as a solvent, a mixed solution of 100 mM each of cholesterol and sphingomyelin (both manufactured by Sigma-Aldrich) was prepared. To this mixed solution, GM 1 (cat. #1061, manufactured by Matreya Co.) was dissolved to make a solution of 50 mM concentration. This lipid mixed solution was aliquoted into glass test tubes and stored at −20° C. until use, was melted before use, was mixed with chloroform/methanol mixture (1:1) and mixed, and then the solvent was removed by applying nitrogen gas to the suspension. The dried lipid mixture was resuspended in PBS to be a GM1 concentration of 2.5 mM, and frozen and thawed 5 times with liquid nitrogen. The lipid suspension was centrifuged at 15,000 rpm for 10 minutes and the precipitate was resuspended in PBS to be a GM1 concentration of 2.5 mM. Using an ultrasonic crusher (XL-2000, MISONIX Co., Ltd.) equipped with a microchip, ultrasonic treatment was repeated on ice for 10 seconds until the suspension became transparent, and GM1-containing liposome was prepared. Immediately prior to use, PBS was added and diluted to a GM 1 concentration of 75 μM.
(3) Preparation of Compound Solution
Compounds 1 to 133 and 142 to 267 were prepared as 10 mM and 2 mM solution in DMSO, respectively. And each solution was diluted to 75 μM or 15 μM with PBS immediately prior to use.
(4) GAβ-Dependent Amyloid Fibril Formation
To a 96-well microplate, 5 μl each of the 75 μM Aβ solution prepared above (1), the compound solution prepared in (3) or 0.75% DMSO was mixed and incubated at room temperature for 10 minutes. Then, 5 μl each of 750 μM GM1-containing liposome prepared in (2) was added to each well and incubated at 37° C. for 18 hours.
ThT (manufactured by Sigma-Aldrich) was adjusted to 5 μM using 50 mM glycine-NaOH buffer (pH 8.5). Immediately before measurement, 10 μl from each well of (4) was transferred to a 96-well black plate. 50 μl of 5 μM ThT solution was added from each injector to each well using a multi-plate reader (ARVO-HTS, manufactured by Perkin Elmer), and then the optimal fluorescence of ThT bound to amyloid fiber (excitation wavelength 430 nm, fluorescence wavelength 490 nm) was measured.
The fluorescence intensity of ThT indicates the degree of amyloid fibrils formation. By calculating the ratio of the ThT fluorescence intensity between addition of the compound and without addition of the compound, the inhibition rate against amyloid fibril formation by the compound was calculated.

T1 sequence (P05067 672-711 limits assumed): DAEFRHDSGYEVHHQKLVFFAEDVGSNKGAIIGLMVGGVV

Row | SMILES | inhibition at 5 µM [%]
1 | O=C1CC(c2nc(-c3ccc4c(c3)OC(F)(F)O4)no2)CN1c1ccc(Cl)cc1 (stereo not shown) [Compound 32, 1-(4-chlorophenyl)-4-{3-(2,2-difluoro-benzo[d][1,3]dioxol-5-yl)-1,2,4-oxadiazol-5-yl}pyrrolidin-2-one] | 43

same assay, conditions: @25 μM; read-out: ThT Inhibitory activity (% inhibition)

Row | SMILES | inhibition at 25 µM [%]
2 | COc1ccc(-c2noc([C@@H](N)Cc3c[nH]c4ccccc34)n2)cc1 [Compound 18, (S)-2-(1H-indol-3-yl)-1-{3-(4-methoxyphenyl)-1,2,4-oxadiazol-5-yl}ethan-1-amine] | 86
3 | O=C1CC(c2nc(-c3ccc4c(c3)OC(F)(F)O4)no2)CN1c1ccc(Cl)cc1 (stereo not shown) [Compound 32, 1-(4-chlorophenyl)-4-{3-(2,2-difluoro-benzo[d][1,3]dioxol-5-yl)-1,2,4-oxadiazol-5-yl}pyrrolidin-2-one] | 86

same assay, conditions: inhibition rate against amyloid fibril formation, final concentration of the compound 25 μM; 25 µM

Row | SMILES | Inhibitory activity ABC evaluation
4 | O=C(NC(CO)c1nc(-c2ccc(C(F)(F)F)cc2)no1)c1ccc(F)cc1 (stereo in doubt) [Compound 152, 4-fluoro-N-[(1R)-2-hydroxy-1-{3-[4-(trifluoromethyl)phenyl]-1,2,4-oxa-diazol-5-yl}ethyl] benzamide] | B (40% or more and less than 80% were evaluated as B)

same assay, conditions: inhibition rate against amyloid fibril formation, final concentration of the compound 25 μM; read-out: Inhibitory activity ABC evaluation

Row | SMILES | inhibition at 25 µM [%]
5 | O=C(c1ccc(Cl)cc1)N1CC(O)CC1c1nc(-c2ccc(OC(F)(F)F)cc2)no1 (stereo in doubt) [Compound 85, (4-chlorophenyl) ((2S,4S)-4-hydroxy-2-[3-{4-(trifluoromethoxy)phenyl}-1,2,4-oxadiazol-5-yl]pyrrolidin-1-yl)methanone] | 40 to 80
6 | CCCN(C(=O)CCc1nc(-c2ccc(OC)cc2)no1)c1cncc(Cl)c1 [Compound 5, N-(5-chloropyridin-3-yl)-3-{3-(4-methoxyphenyl)-1,2,4-oxadiazol-5-yl}-N-propylpropanamide] | 40 to 80
7 | CCN(C(=O)CCc1nc(-c2ccc(OC)cc2)no1)c1cccc(Cl)c1 [Compound 7, N-(3-chlorophenyl)-N-ethyl-3-{3-(4-methoxyphenyl)-1,2,4-oxadiazol-5-yl}propanamide] | 40 to 80
8 | COc1ccc(-c2noc(CCC(=O)Nc3cccc(Cl)c3)n2)cc1 [Compound 8, N-(3-chlorophenyl)-3-{3-(4-methoxyphenyl)-1,2,4-oxadiazol-5-yl}propanamide] | < 40
9 | CCCN(Cc1cccc(Cl)c1)C(=O)CCc1nc(-c2ccc(OC)cc2)no1 [Compound 9, N-(3-chlorobenzyl)-3-{3-(4-methoxyphenyl)-1,2,4-oxadiazol-5-yl}-N-propylpropanamide] | 40 to 80
10 | CN(C(=O)CCc1nc(-c2ccc(OC(F)(F)F)cc2)no1)c1cccc(Cl)c1 [Compound 11, N-(3-chlorophenyl)-N-methyl-3-[3-{4-(trifluoromethoxy)phenyl}-1,2,4-oxadiazol-5-yl]propanamide] | 40 to 80
11 | O=C(CCc1nc(-c2ccc(OC(F)(F)F)cc2)no1)N1CCCc2ccccc21 [Compound 12, 1-{3,4-dihydroquinolin-1(2H)-yl}-3-[3-{4-(trifluoromethoxy)phenyl}-1,2,4-oxadiazol-5-yl]propan-1-one] | 40 to 80
12 | CN(C(=O)CCc1nc(-c2ccc(O)cc2)no1)c1cccc(Cl)c1 [Compound 13, N-(3-chloropbenyl)-3-{3-(4-hydroxyphenyl)-1,2,4-oxadiazol-5-yl}-N-methylpropanamide] | 40 to 80
13 | CN(Cc1cccc(F)c1)C(=O)CCc1nc(-c2ccc(O)cc2)no1 [Compound 14, N-(3-fluorobenzyl)-3-{3-(4-hydroxyphenyl)-1,2,4-oxadiazol-5-yl}-N-methylpropanamide] | < 40
14 | CN(Cc1ccccc1)C(=O)CCc1nc(-c2ccc3c(c2)OCCO3)no1 [Compound 16, N-benzyl-3-{3-(2,3-dihydrobenzo[b][1,4]dioxin-6-yl)-1,2,4-oxadiazol-5-yl}-N-methylpropanamide] | < 40
15 | O=C(CCc1nc(-c2ccc3c(c2)OCCO3)no1)N1CCc2ccccc2C1 [Compound 17, 3-{3-(2,3-dihydrobenzo[b][1,4]dioxin-6-yl)-1,2,4-oxadiazol-5-yl}-1-{3,4-dihydroisoquinolin-2(1H)-yl}propan-1-one] | 40 to 80
16 | COc1ccc(-c2noc([C@@H](N)Cc3c[nH]c4ccccc34)n2)cc1 [Compound 18, (S)-2-(1H-indol-3-yl)-1-{3-(4-methoxyphenyl)-1,2,4-oxadiazol-5-yl}ethan-1-amine] | > 80
17 | CCCN(C(=O)CCc1nc(-c2ccc(O)cc2)no1)c1cccc(Cl)c1 [Compound 19, N-(3-chlorophenyl)-3-{3-(4-hydroxyphenyl)-1,2,4-oxadiazol-5-yl}-N-propylpropanamide] | 40 to 80
18 | CC(C)(NC(=O)c1ccc(Cl)cc1)c1nc(-c2ccc(OC(F)(F)F)cc2)no1 [Compound 20, 4-chloro-N-(2-[3-{4-(trifluoromethoxy)phenyl}-1,2,4-oxadiazol-5-yl]propan-2-yl)benzamide] | 40 to 80
19 | CN(C(=O)c1ccc(Cl)cc1)C(C)(C)c1nc(-c2ccc(OC(F)(F)F)cc2)no1 [Compound 21, 4-chloro-N-methyl-N-(2-{3-[4-(trifluoromethoxy)phenyl]-1,2,4-oxadiazole-5-yl}propan-2-yl)benzamide] | < 40
20 | COc1ccc(-c2noc(C(C)(C)N(C)C(=O)c3ccc(Cl)cc3)n2)cc1 [Compound 22, 4-chloro-N-[2-{3-(4-methoxyphenyl)-1,2,4-oxadiazol-5-yl}propan-2-yl]-N-methyl-benzamide] | < 40
21 | O=C1CC(c2nc(-c3ccc(OC(F)(F)F)cc3)no2)CN1c1ccc(Cl)cc1 (stereo not drawn) [Compound 23, l-(4-chlorophenyl)-4-[3-{4-(trifluoromethoxy)phenyl}-1,2,4-oxadiazol-5-yl]pyrrolidin-2-one] | 40 to 80
22 | COc1ccc(-c2noc(C3CC(=O)N(c4ccc(Cl)cc4)C3)n2)cc1 (stereo not shown) [Compound 24, 1-(4-chlorophenyl)-4-{3-(4-methoxyphenyl)-1,2,4-oxadiazol-5-yl}pyrrolidin-2-one] | 40 to 80
23 | N[C@@H](Cc1c[nH]c2ccccc12)c1nc(-c2ccc(OC(F)(F)F)cc2)no1 [Compound 25, (S)-2-(1H-indole-3-yl)-1-[3-(4-trifluoromethoxyphenyl)-1,2,4-oxadiazole-5-yl]ethane-1-amine] | > 80
24 | O=C1CC(c2nc(-c3ccc(OC(F)(F)F)cc3)no2)CN1c1ccc(F)cc1 (stereo not drawn) [Compound 26, l-(4-fluorophenyl)-4-[3-{4-(trifluoro-methoxy)phenyl}-1,2,4-oxadiazol-5-yl]pyrrolidin-2-one] | 40 to 80
25 | O=C1CC(c2nc(-c3ccc(OC(F)(F)F)cc3)no2)CN1c1cccc(Cl)c1 (stereo not shown) [Compound 27, 1-(3-chlorophenyl)-4-{3-[4-(trifluoromethoxy)phenyl]-1,2,4-oxadiazole-5-yl}pyrrolidin-2-one] | 40 to 80
26 | O=C1CC(c2nc(-c3ccc(OC(F)(F)F)cc3)no2)CN1c1ccc(Cl)cc1F (stereo not shown) [Compound 28, 1-(4-chloro-2-fluorophenyl)-4-[3-{4-(trifluoromethoxy)phenyl}-1,2,4-oxadiazol-5-yl]pyrrolidin-2-one] | 40 to 80
27 | O=C(NC1(c2nc(-c3ccc(OC(F)(F)F)cc3)no2)CCCC1)c1ccc(Cl)cc1 [Compound 29, 4-chloro-N-(1-[3-{4-(trifluoromethoxy)phenyl}-1,2,4-oxadiazol-5-yl]cyclopentyl) benzamide] | < 40
28 | O=C(NC1(c2nc(-c3ccc(OC(F)(F)F)cc3)no2)CCCC1)c1ccc(F)cc1 [Compound 30, 4-fluoro-N-(1-[3-{4-(trifluoromethoxy)phenyl}-1,2,4-oxadiazol-5-yl]cyclopentyl) benzamide] | < 40
29 | O=C(NC1(c2nc(-c3ccc(OC(F)(F)F)cc3)no2)CCCC1)c1ccc(Cl)nc1 [Compound 31, 6-chloro-N-(1-[3-{4-(trifluoromethoxy)phenyl}-1,2,4-oxadiazol-5-yl]cyclopentyl) nicotinamide] | < 40
30 | O=C1CC(c2nc(-c3ccc4c(c3)OC(F)(F)O4)no2)CN1c1ccc(Cl)cc1 (stereo not shown) [Compound 32, 1-(4-chlorophenyl)-4-{3-(2,2-difluoro-benzo[d][1,3]dioxol-5-yl)-1,2,4-oxadiazol-5-yl}pyrrolidin-2-one] | > 80
31 | O=C1CC(c2nc(-c3cccc(OC(F)(F)F)c3)no2)CN1c1ccc(Cl)cc1 (stereo not shown) [Compound 33] | 40 to 80
